Laboratory results reported in paper PMC4105567, “Aurora Kinases as Druggable Targets in Pediatric Leukemia: Heterogeneity in Target Modulation Activities and Cytotoxicity by Diverse Novel Therapeutic Agents” (PLoS ONE, 2014).
Read-outs that look alike come from different tables or passages of the source.

Columns and labels:
[1] = test system: Molm13 AML cell line; assay: Cytotoxicity assay, Molm13; type: cell-based, human; conditions: four days in culture, Alamar blue assay or automated microscopy, ± SD, three experiments
Protocol: (§1) Cell lines were cultured in Opti-MEM medium (Gibco, Life Technologies Corporation, Burlington, Ontario) supplemented with 10% heat inactivated fetal bovine serum (FBS) (Gibco), 100 units/ml penicillin and 100 units/ml streptomycin (Gibco) and 0.05 mM 2-mercaptoethanol (Sigma-Aldrich, Oakville, Ontario) in T25 flasks (Nalge Nunc, Rochester, New York) or T75 flasks (Corning Incorporated, Corning, New York). All cell cultures were maintained at 37°C in a humidified incubator with 5% CO2.
(§2) For cytotoxicity profiling of Aurora kinase inhibitors against leukemia cell lines, inhibitors or vehicle control (DMSO, Sigma-Aldrich) were diluted in 100 µl of Opti-MEM per well in 96 well plates (Grenier Bio-One, Monroe, North Carolina) in triplicate at final concentrations ranging from 1×10^−6 to 10 µM. 1×10^4 cells per well were seeded and plates were incubated for 4 days. Following incubation for 4 days, cell survival was quantified by Alamar blue assay (Invitrogen) or automated inverted microscopy using the Celigo Cell Cytometer (Cyntellect, San Diego, California). […] During this period of incubation, the absorbance at 570–620 nm was measured (Opsys MR Plate Reader, Dynex Technologies, Chantilly, Virginia) at various time points, depending on the cell line or sample. Percent survival was calculated by comparing the absorbance ratio of the test well to the control well multiplied by 100%, as indicated in the following formula: […]
(§3) For automated inverted microscopy, the number of cells in each well was determined using the direct cell counting application as described previously. Briefly, following adjustment of image acquisition settings for bright-field imaging, the wells containing cells and appropriate dilutions of inhibitors were individually scanned. Based on these images, analysis parameters, including intensity threshold and cell diameter, were modified for optimal inclusion of viable cells in treated and control wells. These parameters were applied for subsequent replicates involving the same leukemia cell line or sample. The percent survival was then calculated as a ratio of the number of cells in treated wells to the number of cells in control wells multiplied by 100%. Given that Aurora kinase inhibitors interfere with cytokinesis, cells that are committed to death may still contain enlarging but intact cytoplasmic content before the eventual loss of cytoplasmic membrane integrity. The accuracy of Alamar blue assay may be, in theory, affected by the timing of these events.

[2] = test system: HL-60 APML cell line; assay: Cytotoxicity assay, HL-60; type: cell-based, human; conditions: APML cell line HL-60, four days in culture, Alamar blue assay or automated microscopy, ± SD, three experiments
Protocol: as §1, §2, §3

[3] = test system: Patient #4 infant leukemia primary cells; assay: Cytotoxicity assay, primary sample Patient #4; type: cell-based, human; conditions: four days in culture, Alamar blue assay or automated microscopy, one complete study
Protocol: (§4) These include B-ALL (Patient #1), relapsed AML (Patient #2), AML/CML (Patient #3), infant ALL (Patient #4), and initial ALL presenting with secondary AML (Patient #5). […] The diluted sample was then layered on a Ficoll-Paque (GE Healthcare, Piscataway, New Jersey) gradient at a 1∶2 ratio of Ficoll to diluted sample. Samples were then centrifuged 1800 rpm for 20 minutes at room temperature. The buffy coat was removed with a pipette and transferred to a new centrifuge tube and diluted with PBS. After an additional centrifugation at 1200 rpm, the white blood cell pellet was washed with PBS and centrifuged one last time. Cells were re-suspended in Opti-MEM and viable cells were counted using trypan blue (Invitrogen, Life Technologies Corporation, Burlington, Ontario) exclusion on a haemocytometer. An identical protocol was followed for the isolation of white blood cells, referred to as “normal lymphocytes” in the following paragraphs, from healthy volunteers. Samples grown in culture for up to six months were cultured in Opti-MEM medium supplemented with 10% heat inactivated FBS, penicillin/streptomycin and 2-mercaptoethanol.
as §2, §3

[4] = test system: Aurora-B; parameters: method as in earlier work; conditions: literature values; ref [10],[22],[27],[40],[44]–[64] as listed per inhibitor in Table 1; read-out: Targets (IC50 Value): Aurora-B; cited from earlier work
[5] = test system: Aurora-A; parameters: method as in earlier work; conditions: literature values; ref [10],[22],[27],[40],[44]–[64] as listed per inhibitor in Table 1; read-out: Targets (IC50 Value): Aurora-A; cited from earlier work
[6] = test system: Bone Marrow Stroma; assay: Cytotoxicity assay, bone marrow stroma; type: cell-based, human; conditions: bone marrow stroma (control for non-leukemia cytotoxicity), four days in culture, ± SD, three experiments
Protocol: as §2, §3

[7] = test system: B1 B-ALL cell line; assay: Cytotoxicity assay, B1; type: cell-based, human; conditions: four days in culture, Alamar blue assay or automated microscopy, ± SD, three experiments
Protocol: as §1, §2, §3

[8] = test system: MV4-11 AML cell line; assay: Cytotoxicity assay, MV4-11; type: cell-based, human; conditions: AML cell line MV4-11, four days in culture, Alamar blue assay or automated microscopy, ± SD, three experiments
Protocol: as §1, §2, §3

[9] = test system: HL-60 RA APML cell line; assay: Cytotoxicity assay, HL-60 RA; type: cell-based, human; conditions: APML cell line HL-60 RA, four days in culture, Alamar blue assay or automated microscopy, ± SD, three experiments
Protocol: as §1, §2, §3

[10] = test system: Molt-3 T-ALL cell line; assay: Cytotoxicity assay, Molt-3; type: cell-based, human; conditions: T-ALL cell line Molt-3, four days in culture, Alamar blue assay or automated microscopy, ± SD, three experiments
Protocol: as §1, §2, §3

[11] = test system: normal cells versus leukemia cell lines; assay: Comparison of cytotoxicity IC50 values, normal cells versus leukemia cell lines; type: cell-based, human; conditions: normal lymphocytes and bone marrow stroma versus leukemia cell lines of Table 2
Protocol: as §2, §3

[12] = test system: C1 B-ALL cell line; assay: Cytotoxicity assay, C1; type: cell-based, human; conditions: four days in culture, Alamar blue assay or automated microscopy, ± SD, three experiments
Protocol: as §1, §2, §3

[13] = test system: TIB-202 AML cell line; assay: Cytotoxicity assay, TIB-202; type: cell-based, human; conditions: AML cell line TIB-202, four days in culture, Alamar blue assay or automated microscopy, ± SD, three experiments
Protocol: as §1, §2, §3

[14] = test system: UOCB1 B-ALL cell line; assay: Cytotoxicity assay, UOCB1; type: cell-based, human; conditions: four days in culture, Alamar blue assay or automated microscopy, ± SD, three experiments
Protocol: as §1, §2, §3

[15] = test system: Nalm6 B-ALL cell line; assay: Cytotoxicity assay, Nalm6; type: cell-based, human; conditions: four days in culture, Alamar blue assay or automated microscopy, ± SD, three experiments
Protocol: as §1, §2, §3

[16] = test system: KOPN8 B-ALL cell line; assay: Cytotoxicity assay, KOPN8; type: cell-based, human; conditions: four days in culture, Alamar blue assay or automated microscopy, ± SD, three experiments
Protocol: as §1, §2, §3

[17] = test system: Patient #1 B-ALL primary leukemia cells; assay: Cytotoxicity assay, primary sample Patient #1; type: cell-based, human; conditions: four days in culture, Alamar blue assay or automated microscopy, one complete study
Protocol: as §4, §2, §3

[18] = test system: Patient #5 ALL/AML primary leukemia cells; assay: Cytotoxicity assay, primary sample Patient #5; type: cell-based, human; conditions: primary sample, four days in culture, Alamar blue assay or automated microscopy, one complete study, read-out: IC50, Patient #5 ALL/AML
Protocol: as §4, §2, §3

[19] = test system: Normal Lymphocytes; assay: Cytotoxicity assay, normal lymphocytes; type: cell-based, human; conditions: normal lymphocytes (control for non-leukemia cytotoxicity), four days in culture, ± SD, three experiments
Protocol: as §4, §2, §3

[20] = test system: Patient #2 relapsed AML primary leukemia cells; assay: Cytotoxicity assay, primary sample Patient #2; type: cell-based, human; conditions: four days in culture, Alamar blue assay or automated microscopy, one complete study
Protocol: as §4, §2, §3

[21] = test system: CEM T-ALL cell line; assay: Cytotoxicity assay, CEM; type: cell-based, human; conditions: four days in culture, Alamar blue assay or automated microscopy, ± SD, three experiments
Protocol: as §1, §2, §3

[22] = test system: NB4 APML cell line; assay: Cytotoxicity assay, NB4; type: cell-based, human; conditions: four days in culture, Alamar blue assay or automated microscopy, ± SD, three experiments
Protocol: as §1, §2, §3

[23] = test system: Aurora-C; conditions: read-out: Targets (IC50 Value): Aurora-C; literature values; ref [10],[40],[44]–[64] as listed per inhibitor in Table 1; cited from earlier work
[24] = test system: Patient #3 AML/CML primary leukemia cells; assay: Cytotoxicity assay, primary sample Patient #3; type: cell-based, human; conditions: Homo sapiens, 96 h, four days in culture, Alamar blue assay or automated microscopy, one complete study
Protocol: as §4, §2, §3

[25] = test system: SEM B-ALL cell line; assay: Cytotoxicity assay, SEM; type: cell-based; conditions: Homo sapiens, 96 h, four days in culture, Alamar blue assay or automated microscopy, ± SD, three experiments
Protocol: as §1, §2, §3

| Structure (SMILES) | IC50 [4] [nM] | IC50 [5] [nM] | IC50 values for the normal cells compared with IC50 values for the leukemia cell lines (potential therapeutic window) [11] | IC50 ([1]; Homo sapiens, MOLM-13, 96 h) [nM] | IC50 ([2]; Homo sapiens, 96 h) [nM] | IC50 ([3]; Homo sapiens, 96 h) [nM] | IC50 [24] [nM] | IC50 ([6]; Homo sapiens, 96 h) [nM] | IC50 ([7]; Homo sapiens, 96 h) [nM] | IC50 ([8]; Homo sapiens, 96 h) [nM] | IC50 ([9]; Homo sapiens, 96 h) [nM] | IC50 ([10]; Homo sapiens, 96 h) [nM] | IC50 ([12]; Homo sapiens, 96 h) [nM] | IC50 ([13]; Homo sapiens, 96 h) [nM] | IC50 ([14]; Homo sapiens, UoC-B1, 96 h) [nM] | IC50 ([15]; Homo sapiens, NALM-6, 96 h) [nM] | IC50 ([16]; Homo sapiens, KOPN-8, 96 h) [nM] | IC50 ([17]; Homo sapiens, 96 h) [nM] | IC50 [25] [nM] | IC50 ([18]; Homo sapiens, 96 h) [nM] | also measured |
| --- | --- | --- | --- | --- | --- | --- | --- | --- | --- | --- | --- | --- | --- | --- | --- | --- | --- | --- | --- | --- | --- |
| CN(C)c1ccc(-c2nc3ncc(Cl)c(N4CCN(CC(=O)Nc5nccs5)CC4)c3[nH]2)cc1 [CCT129202] | 200 | 40 | lower than the IC50 values for the normal cells, but not as pronounced |  |  |  |  |  |  |  |  |  |  |  |  |  |  |  |  |  | IC50 [1]: 5000 ± 900 nM; IC50 [2]: 7000 ± 800 nM; IC50 [3]: > 10000 nM; IC50 [6]: 1000 ± 700 nM; IC50 [7]: 3000 ± 600 nM; IC50 [8]: 100 ± 60 nM; IC50 [9]: 8000 ± 500 nM; IC50 [10]: 2000 ± 600 nM; IC50 [12]: 3000 ± 800 nM; IC50 [13]: 50 ± 5 nM; IC50 [14]: 900 ± 90 nM; IC50 [15]: 2000 ± 800 nM; IC50 [16]: 700 ± 100 nM; IC50 [17]: 700 nM; IC50 [18]: 70 nM; IC50 [19]: > 10000 nM; IC50 [20]: 400 nM; IC50 [21]: 900 ± 50 nM; IC50 [22]: > 10000 nM |
| Cc1nc(N)sc1-c1ccnc(Nc2ccc(N3CCOCC3)cc2)n1 [CYC116] |  |  | lower than the IC50 values for the normal cells, but not as pronounced | 400 ± 200 | 7000 ± 3000 | > 10000 | > 10000 | 5000 ± 2000 | 1000 ± 600 | 5 ± 4 | 300 ± 80 | 70 ± 20 | 200 ± 100 | 600 ± 50 | 200 ± 90 | 500 ± 300 | 1000 ± 600 | 10 | 100 ± 4 | 0.4 | IC50 [23]: 69 nM; IC50 ([19]; Homo sapiens, Lymphocyte, 96 h): > 10000 nM; IC50 ([20]; Homo sapiens, 96 h): 70 nM; IC50 ([21]; Homo sapiens, 96 h): 70 ± 9 nM; IC50 ([22]; Homo sapiens, 96 h): 3000 ± 2000 nM |
| CCN(CCCOc1ccc2c(Nc3cc(CC(=O)Nc4cccc(F)c4)n[nH]3)ncnc2c1)CCOP(=O)(O)O [AZD1152] | […] | […] | higher than the IC50 values for the leukemia cell lines | 7 ± 3 | 300 ± 90 | > 10000 | > 10000 | > 10000 | 200 ± 100 | 0.9 | 0.7 | < 0.001 | 0.8 | 500 ± 200 | 0.6 | 8 ± 2 | 0.2 | 0.005 | 100 ± 60 | 0.02 | IC50 ([19]; Homo sapiens, Lymphocyte, 96 h): > 10000 nM; IC50 ([20]; Homo sapiens, 96 h): 600 nM; IC50 ([21]; Homo sapiens, 96 h): < 0.001 nM; IC50 ([22]; Homo sapiens, 96 h): 50 ± 20 nM |
